According to US7169574B2, “Fluorescence detection of proteases or peptidases” (Institut National de la Sante et de la Recherche Medicale …, priority 2000, dated 2007):
Where “and” joins values, the source holds several entries; their conditions need not be identical. Identical values can stand only once. Numbered stars: 1 amine (or outer) side, 2 acyl side, 3 side chain; on linkers, the order of the positions; unused ones are H or OH. Square brackets hold non-standard residues; d marks the D form. Primed or numbered codes have the meaning given here. Ends that are not written are not given here. PyA″ = pyrenylalanine, O=C([C@H](Cc1ccc2ccc3cccc4ccc1c2c34)N[*:1])[*:2]; Phe(4-NO2) = N[C@@H](Cc1ccc([N+](=O)[O-])cc1)C(=O)O

Columns and labels:
[1] = Stability of the fluorescence of the metabolites formed by ECE; assay type: physicochemical
Excerpt: The measurement of this intensity, related to a standard curve established with mixtures of the substrate and of the fluorescent metabolite formed, therefore makes it possible either to evaluate the inhibitory capacity as percentage inhibition at a set given concentration of the product P, or to precisely determine its IC50 and then its KI using the Km of the substrate and several concentrations of the product P. The extreme sensitivity of the assay makes it possible to operate in very small volumes (100 μl) with concentrations of the order of 20 μM of the substrate 1s (that is to say 2 nmole corresponding to 4.43 μg per assay) or 5 μM of the substrate 2s. The test can therefore be very easily used in 96 wells plates or more, making it possible to automate it with automatic determination of the KI values when the reading fluorimeter is connected to a computer having suitable commercial software.

ECE [2] = target: T1, ECE (Homo sapiens, UniProt P42892); assay: HPLC analysis of products formed on incubation with ECE; assay type: biochemical; details: single cleavage at the PyA-pNF peptide bond
T1 construct: made in house; host or cells: Cos-1 cells or CHO cells
T1 sequence (P42892 1-754 isoform P42892-3): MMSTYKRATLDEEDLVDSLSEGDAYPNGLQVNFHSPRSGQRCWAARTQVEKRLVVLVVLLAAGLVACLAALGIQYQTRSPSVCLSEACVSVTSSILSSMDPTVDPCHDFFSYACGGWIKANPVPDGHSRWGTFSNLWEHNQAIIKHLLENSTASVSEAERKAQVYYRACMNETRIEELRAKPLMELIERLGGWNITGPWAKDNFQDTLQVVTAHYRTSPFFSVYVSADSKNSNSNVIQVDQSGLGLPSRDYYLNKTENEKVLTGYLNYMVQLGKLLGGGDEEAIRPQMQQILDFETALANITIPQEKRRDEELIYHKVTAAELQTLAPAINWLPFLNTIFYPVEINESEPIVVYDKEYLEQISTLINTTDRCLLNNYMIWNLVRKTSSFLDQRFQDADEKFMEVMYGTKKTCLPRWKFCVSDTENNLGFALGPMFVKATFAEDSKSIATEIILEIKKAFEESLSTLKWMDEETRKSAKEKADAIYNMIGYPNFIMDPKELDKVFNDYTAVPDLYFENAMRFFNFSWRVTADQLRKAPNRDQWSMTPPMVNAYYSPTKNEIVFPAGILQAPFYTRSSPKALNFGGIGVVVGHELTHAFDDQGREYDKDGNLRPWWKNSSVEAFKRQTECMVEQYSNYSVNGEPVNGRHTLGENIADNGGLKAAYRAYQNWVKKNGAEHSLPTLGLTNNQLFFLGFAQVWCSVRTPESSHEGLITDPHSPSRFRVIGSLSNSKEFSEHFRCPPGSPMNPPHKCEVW
Procedure: With regard to the products formed, the analysis thereof was carried out, in order to verify the substrate selectivity, by HPLC on a nucleosil C18 column, 7 μm/300 Å (4.6×70 mm), using a buffer B (0.038% of TFA in CH3CN/H2O, 9/1 by vol.) and a gradient of 40–47% of buffer B in 10 minutes (flow rate 1 ml/min).

ECE [3] = target: T1, ECE; assay: ECE inhibition test, fluorescence reading on 96-well microplate (Examples 3 and 4); assay type: biochemical; details: for fluorescence intensity measured for each well: excitation 340 nm, emission 400 nm, gain 85, low value = strong inhibition, blank 67/68, control 1081/1094
Procedure: 100 μl of 50 mM Tris-maleate buffer, pH 6.5, 20 μM or 5 μM of fluorescent peptide 1s or 2s and 10 μl of a solution of ECE diluted as a function of its purity and such that the cleavage of the fluorescent substrate remains less than 5%. […] The reaction is stopped in various ways, for example heating to 90° C., abrupt cooling to 4° C., adding an organic solvent such as dioxane to 20% of the final volume, and then the reading is performed using a fluorimeter (λex=340 nm; λem=400 nm) optionally coupled to the automated analysis system. […] The controls are performed in the presence of all the reagents but without ECE or with ECE inactivated beforehand by heating at 90° C. for 5 minutes.
The inhibitory behavior of several compounds was assessed by reproducing the protocol described in Example 2.
The specific conditions selected for the assays appear below:
Preincubation is carried out for 10 minutes at 37° C. The ECE substrate is then added at an amount of 10 μM. The entire mixture is incubated for between 20 minutes and 1 hour at 37C and the reaction is then stopped either by cooling or by adding dioxane (20 μl).
The reading on cytofluor is performed at 4° C. with the following specificities: excitation 340 nm, emission 400 nm and with a gain of 85.
The assays are performed on a 96-well microplate.
The compounds were tested at two concentrations.

[4] = target: T2, endothelin-converting enzyme (ECE) (Homo sapiens, UniProt P42892); assay: Fluorimetric ECE activity assay with fluorescent peptide substrates (96-well plates); assay type: biochemical; details: 50 mM Tris-maleate buffer, pH 6.5; calculated using the ENZFITTER program; read-out: Km (affinity constant of the enzyme for a substrate)
T2 construct: made in house; host or cells: Cos-1 cells or CHO cells
T2 sequence (P42892 1-754 isoform P42892-3): T1 sequence (P42892 1-754 isoform P42892-3)
Procedure: Various preparations containing ECE can be used, such as, for example, recombinant human ECE-1c expressed in Cos-1 cells (Shimada et al., J. Biol. Chem. (1994) 269, 18275–18278) or CHO cells (Xu et al. Cell (1994) 78, 473–485).
In all cases, the presence of the enzyme is tested by Western blotting using an antibody and its concentration is evaluated by comparison with the purified enzyme.
The ECE activity is determined in 96-well plates, generally under the following conditions:
100 μl of 50 mM Tris-maleate buffer, pH 6.5, 20 μM or 5 μM of fluorescent peptide 1s or 2s and 10 μl of a solution of ECE diluted as a function of its purity and such that the cleavage of the fluorescent substrate remains less than 5%. […] The reaction is stopped in various ways, for example heating to 90° C., abrupt cooling to 4° C., adding an organic solvent such as dioxane to 20% of the final volume, and then the reading is performed using a fluorimeter (λex=340 nm; λem=400 nm) optionally coupled to the automated analysis system. The use of a network fluorimeter considerably further increases the sensitivity of the assay by reading the fluorescence at 377 nm. […]
The KI values for the inhibitors can be determined automatically using the degradation percentages at various concentrations and comparison with a standard range. […]

Ac-Ile-Ile-PyA (Ac-Ile-Ile-[PyA″]) [peptide 1m, fluorescent metabolite of 1s formed by ECE]
fluorescence of the metabolite over time [1]: not modified over several hours

Ac-Ser-Gly-PyA-Lys-Ala-Phe-Ala-pNF-Gly-Lys NH2 (Ac-SG[PyA″]KAFA[Phe(4-NO2)]GK-NH2; SMILES CC(=O)N[C@@H](CO)C(=O)NCC(=O)N[C@@H](Cc1ccc2ccc3cccc4ccc1c2c34)C(=O)N[C@@H](CCCCN)C(=O)N[C@@H](C)C(=O)N[C@@H](Cc1ccccc1)C(=O)N[C@@H](C)C(=O)N[C@@H](Cc1ccc([N+](=O)[O-])cc1)C(=O)NCC(=O)N[C@@H](CCCCN)C(N)=O) [peptide 3s, fluorogenic ECE substrate]
metabolites produced when incubated with ECE (ECE [2]): only two metabolites

CC(C)C[C@H](NP(=O)(O)O[C@@H]1O[C@@H](C)[C@H](O)[C@@H](O)[C@H]1O)C(=O)N[C@@H](Cc1c[nH]c2ccccc12)C(=O)O [P, phosphoramidon]
inhibitory behavior on ECE (ECE [3]; Table II, 10^−6 M and 5 × 10^−6 M): entirely verified | fluorescence intensity measured for each well (ECE [3]; compound at 5 × 10^−6 M): 140 and 133 | fluorescence intensity measured for each well (ECE [3]; compound at 10^−6 M): 455 and 459

Ac-Ile-Ile-PyA-pNF-Asn-Thr-Pro-Glu-His-Val-Val-Pro-Tyr-Gly-Leu-Gly-Ser-COOH (Ac-II[PyA″][Phe(4-NO2)]NTPEHVVPYGLGS-OH; SMILES CC[C@H](C)[C@H](NC(C)=O)C(=O)N[C@H](C(=O)N[C@@H](Cc1ccc2ccc3cccc4ccc1c2c34)C(=O)N[C@@H](Cc1ccc([N+](=O)[O-])cc1)C(=O)N[C@@H](CC(N)=O)C(=O)N[C@H](C(=O)N1CCC[C@H]1C(=O)N[C@@H](CCC(=O)O)C(=O)N[C@@H](Cc1c[nH]cn1)C(=O)N[C@H](C(=O)N[C@H](C(=O)N1CCC[C@H]1C(=O)N[C@@H](Cc1ccc(O)cc1)C(=O)NCC(=O)N[C@@H](CC(C)C)C(=O)NCC(=O)N[C@@H](CO)C(=O)O)C(C)C)C(C)C)[C@@H](C)O)[C@@H](C)CC) [peptide 1s, fluorogenic ECE substrate]
Km [4]: 22.1 ± 0.9 µM | metabolites produced when incubated with ECE (ECE [2]): only two metabolites

C[C@H](CS)C(=O)N1CCC[C@H]1C(=O)O [C, captopril]
fluorescence intensity measured for each well (ECE [3]; compound at 5 × 10^−6 M): 1128 and 1121 | fluorescence intensity measured for each well (ECE [3]; compound at 10^−6 M): 1086 and 1089

O=C(O)CC(=O)NC(CS)Cc1ccccc1 (centres unmarked) [R, retrothiorphan]
fluorescence intensity measured for each well (ECE [3]; compound at 5 × 10^−6 M): 1043 and 1077 | fluorescence intensity measured for each well (ECE [3]; compound at 10^−6 M): 1124 and 1106

NCCCC[C@H](N[C@@H](CCc1ccccc1)C(=O)O)C(=O)N1CCC[C@H]1C(=O)O [L, lysinopril]
fluorescence intensity measured for each well (ECE [3]; compound at 5 × 10^−6 M): 1095 and 1119 | fluorescence intensity measured for each well (ECE [3]; compound at 10^−6 M): 1117 and 1093

Ac-Arg-Pro-Lys-Gln-Glu-PyA [peptide 2m]
fluorescence of the metabolite over time [1]: not modified over several hours

O=C(O)CNC(=O)C(CS)Cc1ccccc1 (centres unmarked) [T, thiorphan]
fluorescence intensity measured for each well (ECE [3]; compound at 5 × 10^−6 M): 1109 and 1121 | fluorescence intensity measured for each well (ECE [3]; compound at 10^−6 M): 1124 and 1127

Ac-Ser-Gly-PyA-Lys-Ala (Ac-SG[PyA″]KA) [peptide 3m, fluorescent metabolite of 3s formed by ECE]
fluorescence of the metabolite over time [1]: not modified over several hours
